Laboratory results as given in patent publication US9040691B2, “Hydroxymethylaryl-substituted pyrrolotriazines as ALK1 inhibitors” (BAYER INTELLECTUAL PROPERTY GMBH, priority 2011, dated 2015).

target: ALK1 kinase (Homo sapiens (Human), UniProt P37023); test: ALK1 kinase assay (ProQinase protocol); type: biochemical; details: ProQinase radiometric assay, casein, γ-33P-ATP
Description: B-1b. ALK1 Kinase Assay (ProQinase Protocol)
ALK1 (Invitrogen, Carlsbad, Calif., USA) kinase activity was measured at ProQinase GmbH (Freiburg, Germany) in a radiometric assay using γ-^33P-ATP and casein (Sigma, St. Louis, Mo., USA) as substrate in 96-well PerkinElmer FlashPlates™ (Boston, Mass., USA). The compounds were tested at 10 concentrations in the range of 1×10^−4 M to 3×10^−9 M in a total volume of 50 μl with a final DMSO concentration of 1% each. The assay components were mixed in the order: • 20 μl assay buffer (70 mM HEPES-NaOH, pH 7.5, 3 mM MgCl2, 3 mM MnCl2, 2 μM sodium orthovanadate, 1.2 mM DTT); • 5 μl γ-^33P-ATP (1.0 μM in water, approx. 6×10^5 cpm per well); • 5 μl test compound solution (in 10% DMSO); • […] (200 μg/ml, 1.0 μg/50 μl final concentration)/enzyme (4 μg/ml, 20 ng/50 μl=5.5 nM final concentration) solution (1:1 mixture).
The reaction mixtures were incubated at 30° C. for 60 minutes and stopped by adding 50 μl 2% (v/v) phosphoric acid. The plates were aspirated and washed twice with 200 μl 0.9% (w/v) sodium chloride. Incorporation of ^33Pi was determined with a microplate scintillation counter (Microbeta, Wallac). All assays were performed using a BecicmanCoulter/SAGIAN™ Core System.
Median values obtained from unspecific substrate binding of labelled. ATP were set as background level, while median values measured in the absence of any inhibitor were considered to reflect full activity of ALK1 kinase. The background activity (ba) was subtracted from the full activity (fa) value as well as from the values obtained from the test compound containing samples (test compound activity, tea). The residual activity in the latter was calculated as follows: residual activity (%)=100×[(tca−ba)/(fa−ba)]
The residual activities for each concentration and the compound IC50 values were calculated using Quattro Workflow V3.1.0 (Quattro Research GmbH, Munich, Germany). The fitting model for the IC50 determinations was “Sigmoidal response (variable slope)” with parameters “top” fixed at 100% and “bottom” at 0%. The fitting method used was a least-squares fit.

Chain of ALK1 kinase (P37023 22-503): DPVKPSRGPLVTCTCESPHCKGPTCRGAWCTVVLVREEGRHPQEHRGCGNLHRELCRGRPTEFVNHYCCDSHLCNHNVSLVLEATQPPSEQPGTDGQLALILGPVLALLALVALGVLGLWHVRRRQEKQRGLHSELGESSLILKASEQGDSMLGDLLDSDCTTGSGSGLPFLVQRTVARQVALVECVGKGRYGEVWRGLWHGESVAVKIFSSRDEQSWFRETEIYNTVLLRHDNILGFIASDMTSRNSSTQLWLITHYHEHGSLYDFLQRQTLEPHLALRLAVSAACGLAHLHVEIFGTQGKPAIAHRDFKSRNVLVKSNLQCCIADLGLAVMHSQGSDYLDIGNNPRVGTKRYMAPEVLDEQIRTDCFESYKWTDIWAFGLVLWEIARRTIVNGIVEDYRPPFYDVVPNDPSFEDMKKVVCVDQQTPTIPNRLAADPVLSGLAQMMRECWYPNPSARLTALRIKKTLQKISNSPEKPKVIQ

Question: For `Nc1ncnn2c([C@@H]3CCCNC3)cc(-c3cc(F)c(CO)c(F)c3)c12` [Example 11, (4-{4-Amino-7-[(3R)-piperidin-3-yl]pyrrolo[2,1-f][1,2,4]triazin-5-yl}-2,6-difluorophenyl)methanol], which IC50 is on record?
Answer: The IC50 was 3 nM.

Question: `Nc1ncnn2c1c(-c1cc(F)c(CO)c(F)c1)cc2[C@H]1CC[C@H](O)CC1` [Example 7, trans-4-[4-Amino-5-[3,5-difluoro-4-(hydroxymethyl)phenyl]pyrrolo[2,1-f][1,2,4]triazin-7-yl]-cyclohexanol] was tested. Which IC50 did it give?
Answer: Its IC50 is 6.7 nM.

test system: hSmad7 mRNA in BMP9-stimulated HMVEC; test: Smad7 target gene induction: HMVEC cell assay and TaqMan expression analysis; type: cell-based; details: Homo sapiens, hBMP9 stimulation, Smad7 mRNA by TaqMan
Description: B-2a. Smad7 Target Gene Induction: HMVEC Cell Assay and TaqMan Expression Analysis
Activation of ALK1 receptors by BMP9 induces the Smad1/5 signalling pathway and enhances expression of target genes Smad6, Smad7 and Id-1. Induction of Smad7-mRNA in BMP9-stimulated endothelial cells was determined to monitor the cellular potency of ALK1 kinase inhibitors.
Human microvascular endothelial cells (IIMVECadult, Cell Systems, St. Katharinen) were seeded in complete ENGS MV medium with all supplements (LifeLine Cell Technology) in 96 well plates with 10 000 cells per well. After 4 h incubation at 37° C. and 7.5% CO2 in a humidified incubator, medium was replaced with minimal medium (ENGS MV without supplements containing 0.02% FCS). After 16 h, test compounds or medium (controls) were added to the cultures, followed 30 min later by addition of hBMP9 (R&D Systems). Medium was removed 1 to 4 h later, plates were gently washed with phosphate-buffered saline, and cells were lysed with 150 μl per well of ice-cold RLT buffer (Qiagen).
Total cellular RNA was isolated with the Trizol® reagent protocol according to the manufacturer's specifications (Invitrogen, USA) and treated with DNAseI to remove genomic DNA contamination.
For relative quantitation of the mRNA distribution of hSmad7, total RNA from each sample was first reverse-transcribed using the ImProm-II Reverse Transcription System (Promega, USA) according to the manufacturer's protocol. The final volume was adjusted to 200 μl with water.
For relative quantitation of selected mRNA, the Applied Bioscience ABI 7900HT Sequence Detection System was used according to the manufacturer's specifications and protocols. PCR reactions were set up to quantitate hSmad7- and the housekeeping gene L32-mRNA. Forward and reverse primers and probes for hSmad7 and L32 were designed using the Applied Bioscience ABI Primer Expressim software and were synthesized by Eurogentec (Belgium). The hSmad7 forward primer sequence was: Primer 1 (SEQ ID NO 1). The hSmad7 reverse primer sequence was: Primer 2 (SEQ ID NO 2). Probe 1 (SEQ ID NO 3), labelled with FAM as the reporter dye and TAMRA as the quencher, was used as a probe for hSmad7. The L32 forward primer sequence was: Primer 3 (SEQ ID NO 4). The L32 reverse primer sequence was: Primer 4 (SEQ ID NO 5). Probe 2 (SEQ ID NO 6), labelled with FAM as the reporter dye and TAMRA as the quencher, was used as a probe for L32.
The following reagents were prepared in a total of 20 μl added per well: 1× qPCR-MasterMix (Eurogentec, Belgium) and hSmad7 forward and reverse primers each at 200 nM, 200 nM hSmad7 FAM/TAMRA-labelled probe 1 (SEQ ID NO 3), and 5 μl of template cDNA. Correspondingly, a second mix in a total of 20 μl was prepared using L32 FAM/TAMRA-labelled probe 2 (SEQ ID NO 6) and L32 forward and reverse primers added per well in parallel samples.
Thermal cycling parameters were 2 min at 50° C., followed by 10 min at 95° C., followed by 40 cycles of melting at 95° C. for 15 sec and annealing/extending at 60° C. for 1 min.
Calculation of Relative Expression:
The Ct (cycle threshold) values were calculated from the turning point of PCR product quantity curves by the ΔΔCt method (delta-delta Ct): ΔCt=CthSmad7−CtL32; relative expression=2^(15-ΔCt).
IC50 values of test compounds were calculated on basis of relative Smad7 expressions at different compound concentrations.

Question: With `CCCc1cc(-c2cc(F)c(CO)c(F)c2)c2c(N)ncnn12` [Example 2, [4-(4-Amino-7-propylpyrrolo[2,1-f][1,2,4]triazin-5-yl)-2,6-difluorophenyl]methanol] as the molecule, how does the IC50 read?
Answer: Its IC50 is 125 nM.

Question: Which IC50 does the source give for `Nc1nc(-c2cc(-c3ccc(CO)cc3)c3c(N)ncnn23)cs1` [Example 17, {4-[4-Amino-7-(2-amino-1,3-thiazol-4-yl)pyrrolo[2,1-f][1,2,4]triazin-5-yl]phenyl}methanol] here?
Answer: Its IC50 is 120 nM.

Question: `Nc1ncnn2c(C(O)C3CC3)cc(-c3cc(F)c(CO)c(F)c3)c12` (stereo not drawn) [Example 5, {4-Amino-5-[3,5-difluoro-4-(hydroxymethyl)phenyl]pyrrolo[2,1-f][1,2,4]triazin-7-yl}(cyclopropyl)methanol] was tested. Which IC50 did it give?
Answer: The IC50 was 150 nM.

Question: For `Nc1ncnn2c(CN3CCOCC3)cc(-c3ccc(CO)c(F)c3)c12` [Example 21, {4-[4-Amino-7-(morpholin-4-ylmethyl)pyrrolo[2,1-f][1,2,4]triazin-5-yl]-2-fluorophenyl}methanol], which IC50 is on record?
Answer: The IC50 was 6000 nM.

Question: How did the IC50 turn out when `Nc1ncnn2c(CCCO)cc(-c3ccc(CO)cc3)c12` [Example 3, 3-{4-Amino-5-[4-(hydroxymethyl)phenyl]pyrrolo[2,1-f][1,2,4]triazin-7-yl}propan-1-ol] was run?
Answer: Its IC50 is 180 nM.

Question: For `Nc1ncnn2c(CN3CCOCC3)cc(-c3cc(F)c(CO)c(F)c3)c12` [Example 20, {4-[4-Amino-7-(morpholin-4-ylmethyl)pyrrolo[2,1-f][1,2,4]triazin-5-yl]-2,6-difluorophenyl}-methanol], which IC50 is on record?
Answer: The IC50 was 4400 nM.

Question: How did the IC50 turn out when `Nc1ncnn2c([C@@H]3CCCNC3)cc(-c3cc(F)c(CO)c(F)c3)c12` [Example 11, (4-{4-Amino-7-[(3R)-piperidin-3-yl]pyrrolo[2,1-f][1,2,4]triazin-5-yl}-2,6-difluorophenyl)methanol] was run?
Answer: Its IC50 is 90 nM.

Question: With `Nc1ncnn2c(CN3CCOCC3)cc(-c3ccc(CO)c(Cl)c3)c12` [Example 22, {4-[4-Amino-7-(morpholin-4-ylmethyl)pyrrolo[2,1-f][1,2,4]triazin-5-yl]-2-chlorophenyl}methanol] as the molecule, how does the IC50 read?
Answer: The IC50 was 800 nM.

Question: How did the IC50 turn out when `CCCc1cc(-c2ccc(CO)cc2)c2c(N)ncnn12` [Example 1, [4-(4-Amino-7-propylpyrrolo[2,1-f][1,2,4]triazin-5-yl)phenyl]methanol] was run?
Answer: The IC50 was 100 nM.

Question: `Nc1ncnn2c1c(-c1cc(F)c(CO)c(F)c1)cc2[C@H]1CC[C@H](O)CC1` [Example 7, trans-4-[4-Amino-5-[3,5-difluoro-4-(hydroxymethyl)phenyl]pyrrolo[2,1-f][1,2,4]triazin-7-yl]-cyclohexanol] was tested. Which IC50 did it give?
Answer: The IC50 was 130 nM.
